Results on one compound are retold here after BindingDB's records for PubMed 34479036 (n/a, 2021).

This assay deals with T1, Prostaglandin G/H synthase 2 (Homo sapiens, UniProt P35354).
T1 sequence (P35354 whole entry): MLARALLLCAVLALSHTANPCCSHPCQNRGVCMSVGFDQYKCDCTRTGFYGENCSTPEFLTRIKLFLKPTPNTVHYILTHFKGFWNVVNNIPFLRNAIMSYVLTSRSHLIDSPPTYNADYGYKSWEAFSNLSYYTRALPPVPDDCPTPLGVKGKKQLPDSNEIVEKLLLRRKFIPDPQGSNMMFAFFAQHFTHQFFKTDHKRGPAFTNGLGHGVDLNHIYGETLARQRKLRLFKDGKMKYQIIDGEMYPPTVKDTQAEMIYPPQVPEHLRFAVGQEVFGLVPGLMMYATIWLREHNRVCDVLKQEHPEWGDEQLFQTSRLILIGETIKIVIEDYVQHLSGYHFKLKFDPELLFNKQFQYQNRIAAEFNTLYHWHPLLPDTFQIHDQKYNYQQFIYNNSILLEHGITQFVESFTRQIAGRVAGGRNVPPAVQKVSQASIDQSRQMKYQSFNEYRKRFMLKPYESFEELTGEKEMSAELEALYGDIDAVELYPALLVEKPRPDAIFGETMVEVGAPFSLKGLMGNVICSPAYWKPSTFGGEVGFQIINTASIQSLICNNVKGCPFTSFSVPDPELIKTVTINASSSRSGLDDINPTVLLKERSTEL
Briefly: Inhibition of COX-2 (unknown origin) by enzyme immune assay.

Molecules are shown by their SMILES.

On to `C=C1CC[C@@H]2[C@H](CC2(C)C)C(=C)CC[C@H]1O`, for which the IC50 came to 88 nM.

In general, IC50 refers to the point on the concentration scale where inhibition reaches its midpoint.
